# Experimental data taken from PubChem BioAssay AID2060610 (Molecular Pharmacology Branch, DTP, NCI, 2025).
# Where “and” joins values, the source holds several entries; their conditions need not be identical. Identical values can stand only once.
# Test system: 616215-338-R-J1-PDC complex spheroids, viability % test/control
# Experiment: Anticancer human tumor 616215-338-R-J1-PDC patient-derived colon adenocarcinoma cell line growth inhibition [CLK]
# Conditions: for viability, T/C: stronger effect = lower value
# Procedure, shortened: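 Patient-derived tumor cells grown as complex spheroids with HUVEC endothelial cells and mesenchymal stem cells, treated with drug combinations. Concentrations descend in half-log steps from near clinical Cmax, or from 10 microM if Cmax unknown.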
# [1] = curve of first compound, second compound 0.0316 µM
# [2] = curve of first compound, second compound 0.1 µM
# [3] = curve of first compound, second compound 0.316 µM
# [4] = curve of first compound, second compound 1 µM
# [5] = curve of first compound, second compound 3.16 µM
# [6] = curve of first compound, second compound 10 µM
# 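Also: spheroids exposed to agents for 7 days.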
# 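For viability, T/C in this document: 100% = DMSO vehicle wells.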
structure (smiles),measurement,setting,value
CCc1c2c(nc3ccc(O)cc13)-c1cc3c(c(=O)n1C2)COC(=O)[C@]3(O)CC + CN1CCN(c2cc(C(=O)Nc3cc4cc(-c5cnn(C)c5)ccc4cn3)ccn2)CC1,IC50,[1],9.64 nM
same,IC50,[2],3.61 nM
same,IC50,[3],< 3.16 nM
same,IC50,[4],< 3.16 nM
same,IC50,[5],< 3.16 nM
same,IC50,[6],< 3.16 nM
same,"viability, T/C","second compound 0.0316 µM, first compound 0.00316 µM",98.2%
same,"viability, T/C","second compound 0.0316 µM, first compound 0.01 µM",42.2%
same,"viability, T/C","second compound 0.0316 µM, first compound 0.0316 µM",32.1%
same,"viability, T/C","second compound 0.0316 µM, first compound 0.1 µM",18%
same,"viability, T/C","second compound 0.0316 µM, first compound 0.316 µM",12.9%
same,"viability, T/C","second compound 0.0316 µM, first compound 1 µM",4.92%
same,"viability, T/C","second compound 0.1 µM, first compound 0.00316 µM",50.8%
same,"viability, T/C","second compound 0.1 µM, first compound 0.01 µM",40.2%
same,"viability, T/C","second compound 0.1 µM, first compound 0.0316 µM",19.1%
same,"viability, T/C","second compound 0.1 µM, first compound 0.1 µM",13.1%
same,"viability, T/C","second compound 0.1 µM, first compound 0.316 µM",14.1%
same,"viability, T/C","second compound 0.1 µM, first compound 1 µM",1.26%
same,"viability, T/C","second compound 0.316 µM, first compound 0.00316 µM",34.2%
same,"viability, T/C","second compound 0.316 µM, first compound 0.01 µM",17.8%
same,"viability, T/C","second compound 0.316 µM, first compound 0.0316 µM",13.5%
same,"viability, T/C","second compound 0.316 µM, first compound 0.1 µM",8.84%
same,"viability, T/C","second compound 0.316 µM, first compound 0.316 µM",1.45%
same,"viability, T/C","second compound 0.316 µM, first compound 1 µM",1.92%
same,"viability, T/C","second compound 1 µM, first compound 0.00316 µM",0.13%
same,"viability, T/C","second compound 1 µM, first compound 0.01 µM",0.13%
same,"viability, T/C","second compound 1 µM, first compound 0.0316 µM",3.09%
same,"viability, T/C","second compound 1 µM, first compound 0.1 µM",0.08%
same,"viability, T/C","second compound 1 µM, first compound 0.316 µM",0.06%
same,"viability, T/C","second compound 1 µM, first compound 1 µM",1.66%
same,"viability, T/C","second compound 3.16 µM, first compound 0.00316 µM",0.07%
same,"viability, T/C","second compound 3.16 µM, first compound 0.01 µM",0.12%
same,"viability, T/C","second compound 3.16 µM, first compound 0.0316 µM",1.53%
same,"viability, T/C","second compound 3.16 µM, first compound 0.1 µM",0.09%
same,"viability, T/C","second compound 3.16 µM, first compound 0.316 µM",3.53%
same,"viability, T/C","second compound 3.16 µM, first compound 1 µM",4.86%
same,"viability, T/C","second compound 10 µM, first compound 0.00316 µM",0.08%
same,"viability, T/C","second compound 10 µM, first compound 0.01 µM",0.13%
same,"viability, T/C","second compound 10 µM, first compound 0.0316 µM",0.18%
same,"viability, T/C","second compound 10 µM, first compound 0.1 µM",0.13%
same,"viability, T/C","second compound 10 µM, first compound 0.316 µM",3.18%
same,"viability, T/C","second compound 10 µM, first compound 1 µM",1.61%
NC(=O)C(=Cn1cnc(-c2cc(C(F)(F)F)cc(C(F)(F)F)c2)n1)c1cncnc1 + CNC(=O)c1ccc(Nc2nc(OC3CCCC3)c3c(-c4ccc5nc(C)oc5c4)c[nH]c3n2)c(OC)c1,IC50,[1],651 nM
same,IC50,[2],< 9.49 nM
same,IC50,[3],< 9.49 nM
same,IC50,[4],< 9.49 nM
same,IC50,[5],< 9.49 nM
same,IC50,[6],< 9.49 nM
same,"viability, T/C","second compound 0.0316 µM, first compound 0.00949 µM",84.9%
same,"viability, T/C","second compound 0.0316 µM, first compound 0.03 µM",95.5%
same,"viability, T/C","second compound 0.0316 µM, first compound 0.0949 µM",96%
same,"viability, T/C","second compound 0.0316 µM, first compound 0.3 µM",77.6%
same,"viability, T/C","second compound 0.0316 µM, first compound 0.949 µM",36.6%
same,"viability, T/C","second compound 0.0316 µM, first compound 3 µM",18.4%
same,"viability, T/C","second compound 0.1 µM, first compound 0.00949 µM",45.4%
same,"viability, T/C","second compound 0.1 µM, first compound 0.03 µM",48.2%
same,"viability, T/C","second compound 0.1 µM, first compound 0.0949 µM",34.1%
same,"viability, T/C","second compound 0.1 µM, first compound 0.3 µM",33.1%
same,"viability, T/C","second compound 0.1 µM, first compound 0.949 µM",32.5%
same,"viability, T/C","second compound 0.1 µM, first compound 3 µM",15.8%
same,"viability, T/C","second compound 0.316 µM, first compound 0.00949 µM",34%
same,"viability, T/C","second compound 0.316 µM, first compound 0.03 µM",30.4%
same,"viability, T/C","second compound 0.316 µM, first compound 0.0949 µM",29.7%
same,"viability, T/C","second compound 0.316 µM, first compound 0.3 µM",25.4%
same,"viability, T/C","second compound 0.316 µM, first compound 0.949 µM",29.3%
same,"viability, T/C","second compound 0.316 µM, first compound 3 µM",12.8%
same,"viability, T/C","second compound 1 µM, first compound 0.00949 µM",34.5%
same,"viability, T/C","second compound 1 µM, first compound 0.03 µM",33.4%
same,"viability, T/C","second compound 1 µM, first compound 0.0949 µM",30.5%
same,"viability, T/C","second compound 1 µM, first compound 0.3 µM",26.9%
same,"viability, T/C","second compound 1 µM, first compound 0.949 µM",18.3%
same,"viability, T/C","second compound 1 µM, first compound 3 µM",7.01%
same,"viability, T/C","second compound 3.16 µM, first compound 0.00949 µM",33.5%
same,"viability, T/C","second compound 3.16 µM, first compound 0.03 µM",35%
same,"viability, T/C","second compound 3.16 µM, first compound 0.0949 µM",27.7%
same,"viability, T/C","second compound 3.16 µM, first compound 0.3 µM",23.3%
same,"viability, T/C","second compound 3.16 µM, first compound 0.949 µM",13.1%
same,"viability, T/C","second compound 3.16 µM, first compound 3 µM",4.39%
same,"viability, T/C","second compound 10 µM, first compound 0.00949 µM",31.3%
same,"viability, T/C","second compound 10 µM, first compound 0.03 µM",28.5%
same,"viability, T/C","second compound 10 µM, first compound 0.0949 µM",28.9%
same,"viability, T/C","second compound 10 µM, first compound 0.3 µM",19.7%
same,"viability, T/C","second compound 10 µM, first compound 0.949 µM",10.8%
same,"viability, T/C","second compound 10 µM, first compound 3 µM",2.88%
CC1(C)CCC(CN2CCN(c3ccc(C(=O)NS(=O)(=O)c4ccc(NCC5CCOCC5)c([N+](=O)[O-])c4)c(Oc4cnc5[nH]ccc5c4)c3)CC2)=C(c2ccc(Cl)cc2)C1,"viability, T/C",compound 0.0316 µM,88.4% and 102%
same,"viability, T/C",compound 0.1 µM,95.6% and 102%
same,"viability, T/C",compound 0.316 µM,97.5% and 98.5%
same,"viability, T/C",compound 1 µM,90.2% and 96.7%
same,"viability, T/C",compound 3.16 µM,86.7% and 87.4%
same,IC50,curve of compound,5250 nM and > 10000 nM
